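Cultured in 96-well plates, cells were exposed to test compound for 48 hours across five concentrations. GI50: concentration for 50% inhibition of growth.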 Active and inactive are the calls of the source. Cut-off read from the data, not from the text of the source: active = GI50 up to about 1.1 µM and inactive = higher.
Assays:
Experiment in all cases: growth of human tumour cells (NCI), 48 h
[1] = tested on: SN12C
[2] = tested on: PC-3
[3] = tested on: BT-549
[4] = tested on: NCI/ADR-RES
[5] = tested on: OVCAR-4
[6] = tested on: MCF7
[7] = tested on: SK-MEL-2
[8] = tested on: HOP-62
[9] = tested on: SK-MEL-28
[10] = tested on: NCI-H23
[11] = tested on: COLO 205
[12] = tested on: HCC 2998
[13] = tested on: SF-268
[14] = tested on: HL-60
[15] = tested on: K562
[16] = tested on: HOP-92
[17] = tested on: HCT-15
[18] = tested on: U-251
[19] = tested on: NCI-H460
[20] = tested on: Hs-578T

Row | Compound | GI50 [1] | GI50 [2] | GI50 [3] | GI50 [4] | GI50 [5] | GI50 [6] | GI50 [7] | GI50 [8] | GI50 [9] | GI50 [10] | GI50 [11] | GI50 [12] | GI50 [13] | GI50 [14] | GI50 [15] | GI50 [16] | GI50 [17] [µM] | GI50 [18] | GI50 [19] | GI50 [20]
1 | COc1ccc2nc3cc(Cl)ccc3c(Nc3ccccc3-c3ccccc3Nc3c4ccc(Cl)cc4nc4ccc(OC)cc34)c2c1 | 32.2 µM (inactive) | 11.3 µM (inactive) | 15.9 µM (inactive) | 13.6 µM (inactive) | 17.4 µM (inactive) | 40.8 µM (inactive) | 34.2 µM (inactive) | 55.7 µM (inactive) | 41.8 µM (inactive) | 21.7 µM (inactive) | 32.6 µM (inactive) | 31.6 µM (inactive) | 31.9 µM (inactive) | 2.66 µM (inactive) | 4.63 µM (inactive) | 31.8 µM (inactive) | 14.3 | 37.3 µM (inactive) | 33.6 µM (inactive) | 27.7 µM (inactive)
2 | O=C(NNCC(F)(F)F)c1ccncc1 | > 100 µM (inactive) | > 100 µM (inactive) | > 100 µM (inactive) | > 100 µM (inactive) | > 100 µM (inactive) | > 100 µM (inactive) | > 100 µM (inactive) | > 100 µM (inactive) | > 100 µM (inactive) | > 100 µM (inactive) | > 100 µM (inactive) | > 100 µM (inactive) | > 100 µM (inactive) | > 100 µM (inactive) | > 100 µM (inactive) | > 100 µM (inactive) | > 100 | > 100 µM (inactive) | > 100 µM (inactive) | > 100 µM (inactive)
3 | CCOc1cc2c(cc1O)/C(=N\OC)C[C@@H]1[C@@H]2CC[C@]2(C)[C@@H](O)CC[C@@H]12 | 0.372 µM (active) | 1.39 µM (inactive) | 1.71 µM (inactive) | 0.0319 µM (active) | 10.7 µM (inactive) | 0.0238 µM (active) | < 0.0358 µM (active) | < 0.0461 µM (active) | 1.61 µM (inactive) | 0.324 µM (active) | 16.3 µM (inactive) | 1.25 µM (inactive) | 0.625 µM (active) | 0.00548 µM (active) | 0.0596 µM (active) | 7.64 µM (inactive) | 0.0653 | 0.135 µM (active) | 0.308 µM (active) | 0.0698 µM (active)
4 | CSC(=NC1=NC(C(F)(F)F)(C(F)(F)F)N=C(c2ccccc2)O1)SC | 17.1 µM (inactive) | 5.14 µM (inactive) | 10.8 µM (inactive) | 5.31 µM (inactive) | 10.3 µM (inactive) | 14.8 µM (inactive) | 16 µM (inactive) | 9.1 µM (inactive) | 38.7 µM (inactive) | 7.31 µM (inactive) | 14.6 µM (inactive) | 12.5 µM (inactive) | 5.07 µM (inactive) | 30.9 µM (inactive) | 6.1 µM (inactive) | 7.8 µM (inactive) | 4.88 | 4.12 µM (inactive) | 12.2 µM (inactive) | 14.2 µM (inactive)
5 | CC1=NN(c2nc(N)nc(C(C)Sc3cc(Cl)c(C)cc3S(N)(=O)=O)n2)C(C)(C)C1 (stereo not given) | > 10 µM (inactive) | > 10 µM (inactive) | > 10 µM (inactive) | > 10 µM (inactive) | > 10 µM (inactive) | > 10 µM (inactive) | > 10 µM (inactive) | > 10 µM (inactive) | > 10 µM (inactive) | > 10 µM (inactive) | > 10 µM (inactive) | > 10 µM (inactive) | > 10 µM (inactive) | > 10 µM (inactive) | > 10 µM (inactive) | > 10 µM (inactive) | > 10 | > 10 µM (inactive) | > 10 µM (inactive) | > 10 µM (inactive)
6 | O=C1Nc2ccc(S(=O)(=O)O)cc2/C1=C1/Nc2ccc(Br)cc2C1=O | > 100 µM (inactive) | > 100 µM (inactive) | > 100 µM (inactive) | > 100 µM (inactive) | > 100 µM (inactive) | 72.8 µM (inactive) | > 100 µM (inactive) | > 100 µM (inactive) | > 100 µM (inactive) | > 100 µM (inactive) | > 100 µM (inactive) | > 100 µM (inactive) | > 100 µM (inactive) | > 100 µM (inactive) | > 100 µM (inactive) | > 100 µM (inactive) | > 100 | > 100 µM (inactive) | > 100 µM (inactive) | > 100 µM (inactive)
7 | COc1ccc(N2C(=O)C3c4[nH]c5ccc(OC)cc5c4C4CCC(C(C)C)CC4C3C2=O)cc1 (stereo not given) | > 100 µM (inactive) | > 100 µM (inactive) | > 100 µM (inactive) | > 100 µM (inactive) | > 55.1 µM (inactive) | > 100 µM (inactive) | > 59.4 µM (inactive) | 12 µM (inactive) | > 73.6 µM (inactive) | > 100 µM (inactive) | > 100 µM (inactive) | 33.7 µM (inactive) | 19.5 µM (inactive) | 55.2 µM (inactive) | 18.3 µM (inactive) | > 54.2 µM (inactive) | > 100 | 26.4 µM (inactive) | 27.5 µM (inactive) | 12.1 µM (inactive)
8 | O=C(O)C1CC=CCC1C(=O)Nc1cccc(O)c1 (stereo not given) | > 100 µM (inactive) | > 100 µM (inactive) | > 100 µM (inactive) | > 100 µM (inactive) | > 100 µM (inactive) | > 100 µM (inactive) | > 100 µM (inactive) | > 100 µM (inactive) | > 100 µM (inactive) | > 100 µM (inactive) | > 100 µM (inactive) | > 100 µM (inactive) | > 100 µM (inactive) | > 100 µM (inactive) | > 100 µM (inactive) | > 100 µM (inactive) | > 100 | > 100 µM (inactive) | > 100 µM (inactive) | > 100 µM (inactive)
9 | COC(=O)/C=C/C(=O)Nc1cc(Cl)c(Cl)cc1CC(=O)N(C)[C@H]1CCCC[C@@H]1N1CCCC1 | 10.2 µM (inactive) | 5.05 µM (inactive) | 12.9 µM (inactive) | 14.7 µM (inactive) | 8.63 µM (inactive) | 3.49 µM (inactive) | 7.29 µM (inactive) | 16.9 µM (inactive) | 16.1 µM (inactive) | 13.8 µM (inactive) | 1.54 µM (inactive) | 7.67 µM (inactive) | 18.7 µM (inactive) | 2.06 µM (inactive) | 3.72 µM (inactive) | 5.74 µM (inactive) | 11.4 | 14.8 µM (inactive) | 17.3 µM (inactive) | 18.1 µM (inactive)
10 | CC1OC(OC2C(OC(=O)[C@]34CCC(C)(C)C[C@H]3C3=CC[C@@H]5[C@@]6(C)CC[C@H](OC7OC(CO)C(O)C(O)C7OC7OC(CO)C(O)C(O)C7O)C(C)(C)[C@@H]6CC[C@@]5(C)[C@]3(C)CC4)OCC(O)C2O)C(O)C(O)C1OC1OCC(O)C(O)C1O (stereo not given in full) | 3.13 µM (inactive) | 12.4 µM (inactive) | 9.12 µM (inactive) | 8.97 µM (inactive) | 9.59 µM (inactive) | 12.6 µM (inactive) | 6.32 µM (inactive) | 15.3 µM (inactive) | 2.65 µM (inactive) | 9.35 µM (inactive) | 1.71 µM (inactive) | 1.98 µM (inactive) | 6.85 µM (inactive) | 6.11 µM (inactive) | 10.8 µM (inactive) | 6.85 µM (inactive) | 15.7 | 15.1 µM (inactive) | 24.4 µM (inactive) | 20.7 µM (inactive)
11 | CC(=O)OC1CCC2(C)C(=CCC3C4CCC5(OC6CC(C)CN(C(C)=O)C6C5C)C(C)=C4C(=O)C32)C1 (stereo not given) | 21.6 µM (inactive) | 14.3 µM (inactive) | 15 µM (inactive) | 18 µM (inactive) | 15.4 µM (inactive) | 10.5 µM (inactive) | 17.8 µM (inactive) | 20.4 µM (inactive) | > 100 µM (inactive) | 15 µM (inactive) | 14 µM (inactive) | 13.7 µM (inactive) | 16 µM (inactive) | 81.3 µM (inactive) | 16.3 µM (inactive) | 15 µM (inactive) | 15.7 | 16.2 µM (inactive) | 15.7 µM (inactive) | 16 µM (inactive)
12 | CCCCCCCSCC(O)COC(c1ccccc1)(c1ccccc1)c1ccccc1 (stereo not given) | 37.7 µM (inactive) | 29.3 µM (inactive) | 73.1 µM (inactive) | 72.1 µM (inactive) | 49.9 µM (inactive) | 40.1 µM (inactive) | 18.3 µM (inactive) | > 100 µM (inactive) | > 100 µM (inactive) | 14.8 µM (inactive) | 39.8 µM (inactive) | 19.4 µM (inactive) | 20.3 µM (inactive) | 26.9 µM (inactive) | 54.6 µM (inactive) | 26.7 µM (inactive) | 41.6 | 50.9 µM (inactive) | 30.1 µM (inactive) | 3.52 µM (inactive)

Reference: ChEMBL document CHEMBL1201862, “PubChem BioAssay data set” (2004)
